A word on the Ki: it is a measure of affinity in units of concentration, obtained from inhibition or displacement.

For this assay, the target named is T1, human CRTH2 (Homo sapiens, UniProt Q9Y5Y4).
T1 sequence (Q9Y5Y4 1-395): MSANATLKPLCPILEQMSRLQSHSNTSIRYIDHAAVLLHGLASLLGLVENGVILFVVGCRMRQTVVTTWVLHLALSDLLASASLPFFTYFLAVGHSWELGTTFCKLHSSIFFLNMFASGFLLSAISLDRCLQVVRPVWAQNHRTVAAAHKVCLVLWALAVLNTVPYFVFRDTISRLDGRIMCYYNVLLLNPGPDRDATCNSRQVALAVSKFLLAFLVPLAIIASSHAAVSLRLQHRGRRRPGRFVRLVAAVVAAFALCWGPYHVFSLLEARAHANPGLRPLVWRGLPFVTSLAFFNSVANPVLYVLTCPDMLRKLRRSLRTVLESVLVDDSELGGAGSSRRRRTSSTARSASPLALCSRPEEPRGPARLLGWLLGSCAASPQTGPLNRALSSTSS
Put plainly: CRTH-2 binding assay (scintillation proximity assay, inhibition of 3H-PGD2 binding). Details: expressed in transfected cells; host or cells: 293EBNA-hCRTH2 cells (membrane preparation). Conditions: membranes from 293EBNA-hCRTH2 cells, 3H-PGD2 3.6 nM; Ki calculated from IC50. As for the experimental part:
A CRTH2 binding assay was developed to measure the ability of compounds to inhibit the binding of PGD2 to human CRTH2 using a scintillation proximity assay.
Membranes containing hCRTH2 receptors were prepared from 293EBNA-hCRTH2 cells (a 293EBNA cell line stably expressing human CRTH2). The cells were grown to confluency, harvested and washed with PBS. The cells were resuspended in 10 mM Hepes pH 7.4, 1 mM EDTA and protease inhibitors and incubated for 30 min on ice. The cells were homogenized and centrifuged for 10 min at 1000×g. The supernate was centrifuged for 30 min at 100,000×g and the membrane pellet was then resuspended in 10 mM Hepes pH 7.4 and 1 mM EDTA. The protein concentration of the membrane preparation was determined by Bradford assay (Bio-Rad).
The ability of compounds to inhibit the interaction of PGD2 to human CRTH2 was determined at seven compound concentrations. Compounds were serially diluted in DMSO then diluted into CRTH2 buffer (10 mM Hepes pH 7.4, 1 mM EDTA, 10 mM MnCl2) to six times the final desired concentration. 20 μL of the diluted compounds were transferred into non-surface binding 96-well plates (Corning). Each concentration was done in triplicate. In addition to test compounds, each plate contained 12 control wells. Six of these wells contained 20 μL of CRTH2 buffer. These wells were used to measure total binding. Six wells contained 20 μL of CRTH2 buffer plus 1.5 mM indomethacin. These wells were used to measure non-specific binding. Next, 293EBNA-hCRTH2 membranes were resuspended in CRTH2 buffer with glycerol (10 mM Hepes pH 7.4, 1 mM EDTA, 10 mM MnCl2, 25% glycerol) so that the final concentration was approximately 20 μg/100 μL. Polylysine-coated yttrium silicate SPA beads (Amersham) were added to the membrane mix to a concentration of 0.4 mg/100 μL and finally ^3H-PGD2 was added to the membrane/SPA bead mix to 3.6 nM. 100 μL of the membrane/SPA bead/^3H-PGD2 mix was added to each well of the non-surface binding plates containing the diluted compound or controls. The plates were incubated for 2 hours at room temperature with shaking and then the plates were counted on a Microbeta scintillation counter (Perkin Elmer) for 1 min per well.
IC50 values were determined from the experimental results by nonlinear regression using Prism 4.0 software. The IC50 values were then used in conjunction with the Kd for hCRTH2 and the ^3H-PGD2 concentration used in the experiment to calculate the Ki for each compound.
In the case of `CC(C)c1nc2cc(N(Cc3ccccc3)S(=O)(=O)c3ccc(F)cc3)ccc2n1CC(=O)O` [Example 16, {5-[Benzyl-(4-fluoro-benzenesulfonyl)-amino]-2-isopropyl-benzoimidazol-1-yl}-acetic acid], the Ki is less than 1000 nM.

Turning to `CCCCc1nc2cc(N(C)S(=O)(=O)c3ccc(F)cc3)ccc2n1CC(=O)O` [Example 17, {2-Butyl-5-[(4-fluoro-benzenesulfonyl)-methyl-amino]-benzoimidazol-1-yl}-acetic acid], the Ki is less than 1000 nM.

On to `CCCc1nc2cc(N(CC(=O)OCC)S(=O)(=O)c3ccc(F)cc3)ccc2n1CC(=O)O` [Example 18, {5-[Ethoxycarbonylmethyl-(4-fluoro-benzenesulfonyl)-amino]-2-propyl-benzoimidazol-1-yl}-acetic acid], for which the Ki was less than 1000 nM.

As for `CCCc1nc2cc(N(Cc3ccc(F)cc3)S(=O)(=O)c3ccc(F)cc3)ccc2n1CC(=O)O` [Example 19, {5-[(4-Fluoro-benzenesulfonyl)-(4-fluoro-benzyl)-amino]-2-propyl-benzoimidazol-1-yl}-acetic acid], the Ki is less than 100 nM.

As to `CCCc1nc2cc(N(CCC(C)C)S(=O)(=O)c3ccc(F)cc3)ccc2n1CC(=O)O` [Example 20, {5-[(4-Fluoro-benzenesulfonyl)-(3-methyl-butyl)-amino]-2-propyl-benzoimidazol-1-yl}-acetic acid], the Ki is less than 100 nM.

For `CCCc1nc2cc(N(C(C)C)S(=O)(=O)c3ccc(F)cc3)ccc2n1CC(=O)O` [Example 21, {5-[(4-Fluoro-benzenesulfonyl)-isopropyl-amino]-2-propyl-benzoimidazol-1-yl}-acetic acid], the Ki was less than 100 nM.

With `CCCc1nc2cc(N(Cc3csc(C)n3)S(=O)(=O)c3ccc(F)cc3)ccc2n1CC(=O)O` [Example 22, {5-[(4-Fluoro-benzenesulfonyl)-(2-methyl-thiazol-4-ylmethyl)-amino]-2-propyl-benzoimidazol-1-yl}-acetic acid], the Ki is less than 1000 nM.

On to `CCCc1nc2cc(N(CC3COc4ccccc4O3)S(=O)(=O)c3ccc(F)cc3)ccc2n1CC(=O)O` (centres unmarked) [Example 23, {5-[(2,3 -Dihydro-benzo[1,4]dioxin-2-ylmethyl)-(4-fluoro-benzenesulfonyl)-amino]-2-propyl-benzoimidazol-1-yl}-acetic acid], for which the Ki is less than 100 nM.

With `CCCc1nc2cc(N(Cc3c(C)noc3C)S(=O)(=O)c3ccc(F)cc3)ccc2n1CC(=O)O` [Example 24, {5-[(3,5-Dimethyl-isoxazol-4-ylmethyl)-(4-fluoro-benzenesulfonyl)-amino]-2-propyl-benzoimidazol-1-yl}-acetic acid], the inhibition constant (Ki) was less than 1000 nM.

As to `CCCc1nc2cc(NC(=O)OC(C)(C)C)ccc2n1CC(=O)O` [Example 25, (5-tert-Butoxycarbonylamino-2-propyl-benzoimidazol-1-yl)-acetic acid], the Ki is less than 10000 nM.

Take `CCCc1nc2cc(N3C(=O)c4ccccc4S3(=O)=O)ccc2n1CC(=O)O` [Example 26, [2-Propyl-5-(1,1,3-trioxo-1,3-dihydro-1λ^6-benzo[d]isothiazol-2-yl)-benzoimidazol-1-yl]-acetic acid]: the Ki is less than 10000 nM.

Regarding `CCCc1nc2cc(N(Cc3ccc(F)cc3)S(=O)(=O)c3cccc(F)c3)ccc2n1CC(=O)O` [Example 27, {5-[(3-Fluoro-benzenesulfonyl)-(4-fluoro-benzyl)-amino]-2-propyl-benzoimidazol-1-yl}-acetic acid], the Ki was less than 1000 nM.

As for `CCCc1nc2cc(N(Cc3ccc(F)cc3)S(=O)(=O)c3ccccc3F)ccc2n1CC(=O)O` [Example 28, {5-[(2-Fluoro-benzenesulfonyl)-(4-fluoro-benzyl)-amino]-2-propyl-benzoimidazol-1-yl}-acetic acid], the Ki was less than 1000 nM.

On to `CCCc1nc2cc(N(Cc3ccc(F)cc3)S(=O)(=O)CC)ccc2n1CC(=O)O` [Example 29, {5-[Ethanesulfonyl-(4-fluoro-benzyl)-amino]-2-propyl-benzoimidazol-1-yl}-acetic acid], for which the Ki is less than 1000 nM.

On to `CCCc1nc2cc(N(Cc3ccc(F)cc3)C(=O)COC)ccc2n1CC(=O)O` [Example 30, {5-[(4-Fluoro-benzyl)-(2-methoxy-acetyl)-amino]-2-propyl-benzoimidazol-1-yl}-acetic acid], for which the Ki was less than 1000 nM.

Consider `CCCc1nc2cc(N(Cc3ccc(F)cc3)C(=O)C3CC3)ccc2n1CC(=O)O` [Example 31, {5-[Cyclopropanecarbonyl-(4-fluoro-benzyl)-amino]-2-propyl-benzoimidazol-1-yl}-acetic acid], for which the Ki was less than 1000 nM.

As to `CCCc1nc2cc(N(Cc3ccc(F)cc3)C(=O)c3ccccc3)ccc2n1CC(=O)O` [Example 32, {5-[Benzoyl-(4-fluoro-benzyl)-amino]-2-propyl-benzoimidazol-1-yl}-acetic acid], the Ki was less than 1000 nM.

As for `CCCc1nc2cc(N(Cc3ccc(F)cc3)C(C)=O)ccc2n1CC(=O)O` [Example 33, {5-[Acetyl-(4-fluoro-benzyl)-amino]-2-propyl-benzoimidazol-1-yl}-acetic acid], the Ki was less than 100 nM.

For `CCCc1nc2c(N(Cc3ccccc3)S(=O)(=O)c3cccc(F)c3)cccc2n1CC(=O)O` [Example 34, {4-[Benzyl-(3-fluoro-benzenesulfonyl)-amino]-2-propyl-benzoimidazol-1-yl}-acetic acid], the Ki was less than 1000 nM.

With `CCCc1nc2c(N(CCOC)S(=O)(=O)c3cccc(F)c3)cccc2n1CC(=O)O` [Example 35, {4-[(3-Fluoro-benzenesulfonyl)-(2-methoxy-ethyl)-amino]-2-propyl-benzoimidazol-1-yl}-acetic acid], the Ki is less than 10000 nM.

As to `CCCc1nc2c(N(CCC(C)C)S(=O)(=O)c3cccc(F)c3)cccc2n1CC(=O)O` [Example 36, {4-[(3-Fluoro-benzenesulfonyl)-(3-methyl-butyl)-amino]-2-propyl-benzoimidazol-1-yl}-acetic acid], the Ki is less than 1000 nM.

For the compound `CCCc1nc2c(N(Cc3ccc(F)cc3)S(=O)(=O)c3cccc(F)c3)cccc2n1CC(=O)O` [Example 37, {4-[(3 -Fluoro-benzenesulfonyl)-(4-fluoro-benzyl)-amino]-2-propyl-benzoimidazol-1-yl}-acetic acid], the Ki was less than 1000 nM.

Take `CCCc1nc2c(N(C(C)C)S(=O)(=O)c3cccc(F)c3)cccc2n1CC(=O)O` [Example 38, {4-[(3-Fluoro-benzenesulfonyl)-isopropyl-amino]-2-propyl-benzoimidazol-1-yl}-acetic acid]: the Ki is less than 10000 nM.

As to `CCCc1nc2c(N(Cc3ccccc3)S(=O)(=O)Cc3ccc(F)cc3)cccc2n1CC(=O)O` [Example 39, {4-[Benzyl-(4-fluoro-phenylmethanesulfonyl)-amino]-2-propyl-benzoimidazol-1-yl}-acetic acid], the Ki was less than 1000 nM.

With `CCCc1nc2cccc(N(Cc3ccccc3)S(=O)(=O)c3ccc(F)cc3)c2n1CC(=O)O` [Example 40, {7-[Benzyl-(4-fluoro-benzenesulfonyl)-amino]-2-propyl-benzoimidazol-1-yl}-acetic acid], the inhibition constant (Ki) was more than 10000 nM.

As for `CCCc1nc2cc(N(Cc3ccccc3Cl)S(=O)(=O)c3ccc(F)cc3)ccc2n1CC(=O)O` [Example 41, {5-[(2-Chloro-benzyl)-(4-fluoro-benzenesulfonyl)-amino]-2-propyl-benzoimidazol-1-yl}-acetic acid], the Ki is less than 100 nM.

The record behind these values is patent US7732618B2, “Benzimidazole acetic acids exhibiting CRTH2 receptor antagonism and uses thereof” (Wyeth, priority 2004, dated 2010).
